Assay results: publication PMC9080489, “Synthesis and biological evaluation of 2-aryl-benzimidazole derivatives of dehydroabietic acid as novel tubulin polymerization inhibitors” (RSC Advances, 2018)

What was measured:
SMMC-7721 cells [1] = experiment: JC-1 mitochondrial membrane potential assay; assay type: cell-based, human; conditions: 24 h, control 6.47%
Description: As the most important organelle, mitochondria play key roles not only on supplying metabolic energy in the form of ATP, but also on regulating the signal transmission during the apoptosis of cancer cells.[46] Besides, the mitochondrial dysfunction can be aroused under high ROS exposure, leading to the collapse of mitochondrial membrane potential (ΔΨm), which is a characteristic phenomenon of early apoptosis.[47] In order to further investigate the apoptosis-inducing effect of target compound 6j, mitochondrial membrane potential changes were detected using the fluorescent probe JC-1. As a lipophilic cationic dye, JC-1 can easily pass through the plasma membrane into cells and accumulates in actively respiring mitochondria. In control cells, JC-1 can form aggregates in mitochondrial matrix and present high red fluorescence. However, in apoptotic cells whose mitochondrial potential has collapsed, JC-1 exists in cytosol as a monomer which emits green fluorescence. SMMC-7721 cells treated with different concentrations (0, 0.1, 0.2, 0.5, 1.0 and 2.0 μM) of compound 6j for 24 h were stained with JC-1 and then subjected to flow cytometry.
The JC-1 mitochondrial membrane potential assay kit (Keygene Biotech., China) was employed to measure mitochondrial depolarization in SMMC-7721 cells. Briefly, cells cultured in six-well plates after indicated treatments were incubated with an equal volume of JC-1 staining solution (5 μg mL^−1) at 37 °C for 20 min and rinsed twice with PBS. Mitochondrial membrane potentials were monitored by determining the relative amounts of dual emissions from mitochondrial JC-1 monomers or aggregates using flow cytometry (Becton-Dickinson FACSCalibur, New York, USA). Mitochondrial depolarization is indicated by an increase in the percentage of cells with low ΔΨm (green fluorescence, lower right quadrant) compared with cells with high ΔΨm (red fluorescence, upper right quadrant).

[2] = test system: intracellular microtubule system of SMMC-7721 cells; experiment: Immunofluorescence staining of microtubule network; assay type: cell-based, human; conditions: 24 h (Fig. 4 legend)
Protocol: Since the tubulin polymerization inhibitory effect of compound 6j has been verified, we subsequently performed the immunofluorescent staining assay to observe its effect on the intracellular microtubule system of SMMC-7721 cells.
[…] After being washed with phosphate buffer solution (PBS) and fixed in 4% paraformaldehyde for 15 min, the cells were permeabilized with 0.5% Triton X-100 for 15 min and blocked for 30 min with 10% goat serum. Then, the cells were incubated with mouse anti-tubulin antibody (ZSGB-Bio, China) at 4 °C overnight and incubated with goat anti-mouse IgG/Alexa-Fluor 488 antibody (ZSGB-Bio, China) at room temperature for 1 h. After the nuclei were stained with Hoechst 33258 (Beyotime Biotech., China) in the dark at room temperature for 30 min, the samples were immediately visualized on a Zeiss LSM 570 laser scanning confocal microscope (Carl Zeiss, Germany).

SMMC-7721 cells [3] = experiment: Wound healing assay (cell migration); assay type: cell-based, human; conditions: 0.2 and 0.5 μM, up to 48 h
Description: Metastasis is a multistep process involving cancer cell motility and invasion which represents a key difficulty for cancer therapy. Thus, the inhibition of metastasis is vital for efficient cancer treatment. Microtubule plays an important role in cell motility and migration. As compound 6j inhibits tubulin polymerization, the capacity of migration inhibition was also investigated through wound healing assay.[45] In this assay, standard scratches (wounds) were made in confluent monolayers of SMMC-7721 cells and incubated with different concentrations (0, 0.1, 0.2 and 0.5 μM) of compound 6j. The migration of SMMC-7721 cells was recorded by microscopic observations at 0, 24 and 48 h.
SMMC-7721 cells (5 × 10^5 cells per well) were grown in a 12-well plate for 24 h. Scratches were made in confluent monolayers using 200 μL pipette tip. Then, wounds were washed twice with PBS to remove non-adherent cell debris. The media containing different concentrations (0, 0.1, 0.2 and 0.5 μM) of compound 6j were added to the corresponding wells. Cells which migrated across the wound area were photographed under the phase contrast microscope (Olympus 1X71 Inverted System Microscope, Olympus, Japan) after 24 and 48 h treatment.

SMMC-7721 cells [4] = experiment: Annexin V-FITC/PI dual staining assay (apoptosis); assay type: cell-based, human; conditions: highest concentration 2.0 μM, 24 h; control 10.12%
Protocol: In order to investigate whether compound 6j could induce cell apoptosis, SMMC-7721 cells treated with different concentrations of compound 6j were subjected to Annexin V-FITC/propidium iodide (PI) dual staining followed by flow cytometry assay.
Apoptosis was discriminated with the Annexin V-FITC/PI dual staining assay. SMMC-7721 cells were seeded at 1 × 10^5 cells per well in 10% fetal calf serum (FBS)-DMEM into six-well plates and treated with or without compound 6j for 24 h. The cells were detached with 0.25% trypsin, washed twice with ice-cold PBS and then resuspended in 500 μL of 1× binding buffer (0.1 M Hepes/NaOH (pH 7.4), 1.4 M NaCl, 25 mM CaCl2). The solution was transferred into 5 mL culture tubes, and 5 μL of Annexin V-FITC (BD, Pharmingen) and 5 μL of PI were added to each tube. The cells were gently vortexed, and incubated for 30 min at 25 °C in the dark. The analysis was performed on a flow cytometry (Becton-Dickinson FACSCalibur, New York, USA).

SMILES: COC(=O)[C@]1(C)CCC[C@]2(C)c3cc(Br)c4nc(-c5ccc6[nH]ccc6c5)[nH]c4c3CCC12 (stereo partly shown) [Compound 6j, Methyl 2′-(1H-indol-5-yl)-12-bromo-13,14-imidazolyl-deisopropyl-dehydroabietate]
- percentage of cells with low ΔΨm (lower right quadrant) (SMMC-7721 cells [1]; 0.1 μM): 11.35%
- percentage of cells with low ΔΨm (lower right quadrant) (SMMC-7721 cells [1]; 0.2 μM): 15.66%
- percentage of cells with low ΔΨm (lower right quadrant) (SMMC-7721 cells [1]; 0.5 μM): 20.16%
- percentage of cells with low ΔΨm (lower right quadrant) (SMMC-7721 cells [1]; 1.0 μM): 31.30%
- percentage of cells with low ΔΨm (lower right quadrant) (SMMC-7721 cells [1]; 2.0 μM): 53.12%
- effect on the microtubule network ([2]; 0.5 μM): most microtubule networks disappeared
- effect on the microtubule network ([2]; 0.1–0.5 μM): the meshy microtubule networks shrank around the nuclei in a dose-dependent manner
- melting point: 179 to 181 °C
- wound healing (cell migration) (SMMC-7721 cells [3]): healing was strongly suppressed
- percentage of early and late apoptotic cells (SMMC-7721 cells [4]): 80.08%
